Data published in patent US20100179173A1, “SUBSTITUTED FUSED PYRIMIDINES AS ANTAGONISTS OF GPR105 ACTIVITY” (priority 2007, published 2010).

molecular target: T1, chimpanzee GPR105 protein (Pan troglodytes, UniProt A0A2J8P2M1); experiment: Cell-Binding Assay: inhibition of UDP-glucose-induced Ca2+ signaling (FLIPR) in HEK/GPR105/Gqi5 cells; assay type: cell-based; settings: HEK cells expressing chimpanzee GPR105 and Gqi5, UDP-glucose agonist at EC80
T1 construct: expressed in transfected cells
T1 sequence (A0A2J8P2M1 1-338): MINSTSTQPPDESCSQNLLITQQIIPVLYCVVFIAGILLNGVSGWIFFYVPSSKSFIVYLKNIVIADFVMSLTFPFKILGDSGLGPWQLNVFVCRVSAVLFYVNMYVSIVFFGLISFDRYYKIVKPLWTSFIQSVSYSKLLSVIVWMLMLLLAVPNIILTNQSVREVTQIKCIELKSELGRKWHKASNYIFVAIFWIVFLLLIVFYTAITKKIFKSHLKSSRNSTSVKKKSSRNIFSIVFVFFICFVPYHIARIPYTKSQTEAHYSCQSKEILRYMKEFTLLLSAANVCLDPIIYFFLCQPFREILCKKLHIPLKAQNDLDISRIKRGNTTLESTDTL
Protocol: A stable HEK clonal cell line expressing the chimpanzee GPR105 protein and the chimeric G protein Gqi5 was developed. The chimeric Gqi5 forces the coupling of GPR105 through the Gq (calcium) pathway and allows for monitoring of calcium signaling using a calcium binding fluorescent dye and the FLIPR (fluorometric imaging plate reader, MDS Sciex). […] Cells were incubated overnight at 37° C. and 5% CO2 to form a monolayer. On the following day, 30 μL of fluorescent no-wash dye was added to the cell monolayer and the plate was incubated for 60 min at 37° C., 5% CO2. […] of compound in 100% DMSO was added to cell/dye incubation using acoustic dispensing (Echo™, Labcyte). Following a 20 minute incubation of compound at room temperature, 6.25 μL of UDP-glucose agonist (at EC80) in Hank's Balanced Salt Solution (HBSS) containing 20 mM Hepes was added to cells and Ca^2+ signaling was monitored by FLIPR. Quantitation of the % inhibition of Ca^2+ signaling by antagonist was calculated using the maximum fluorescent signal detected. IC50's for the compounds of structural formula (I) were calculated as follows: […]

| Structure (SMILES) | IC50 [nM] |
| --- | --- |
| CCc1cc(Cl)cc(NC(=O)N2CCc3nc(-c4cncnc4)nc(-c4ccccc4C)c3C2)c1 | 10.5 |
| CCc1cccc(NC(=O)N2CCc3nc(-c4ccnc(F)c4)nc(-c4ccccc4C)c3C2)c1 | 12 |
| CCc1cccc(NC(=O)N2CCc3nc(-c4cscc4C)nc(-c4ccccc4C)c3C2)c1 | 65.1 |
| CCc1cncc(NC(=O)N2CCc3nc(-c4cccnc4)nc(-c4ccccc4C)c3C2)c1 | 55.7 |
| CCc1cccc(NC(=O)N2CCc3nc(-c4ccnn4C)nc(-c4ccccc4C)c3C2)c1 | 34.5 |
| Cc1ccccc1-c1nc(-c2cccnc2)nc2c1CN(C(=O)Nc1cccc(-c3ccc(C(N)=O)cc3)c1)CC2 | 18.4 |

Now those with a lower IC50, led by results:

| IC50 [nM] | Structure (SMILES) |
| --- | --- |
| 8.1 | CCc1cc(NC(=O)N2CCc3nc(-c4cccnc4)nc(-c4ccccc4C)c3C2)cc(Oc2ccccc2)c1 |
| 7.8 | CCc1cccc(NC(=O)N2CCc3nc(-c4ccc(C#N)nc4)nc(-c4ccccc4C)c3C2)c1 |
| 5.6 | CCc1cc(NC(=O)N2CCc3nc(-c4cccnc4)nc(-c4ccccc4C)c3C2)cc(-c2cn(C)cn2)c1 |
| 4 | CCc1cc(NC(=O)N2CCc3nc(-c4cccnc4)nc(-c4ccccc4C)c3C2)cc(-c2ccc(C(=O)O)cc2)c1 |
